Experimental data from patent US10405548B2, “Fungicidal compositions” (Syngenta Crop Protection, LLC, priority 2004, dated 2019).
“And” between values parts separate entries of the source, which are not always exact repeats. Equal values may be shown once. Read-outs that look alike come from different tables or passages of the source.

What was measured:
Format in all cases: cell-based
[1] = test system: Microdochium nivale; assay: Fungal growth assay, Control of Microdochium nivale (PDB, 96-well, 24° C., photometric, 72 hrs)
[2] = test system: Pyrenophora graminea; assay: Fungal growth assay, Control of Pyrenophora graminea (PDB, 96-well, 24° C., photometric, 72 hrs)
[3] = test system: Fusarium graminearum
[4] = test system: Ustilago nuda; assay: Fungal growth assay, Control of Ustilago nuda (PDB, 96-well, 24° C., photometric, 48 hrs)
[5] = test system: Septoria tritici; assay: Fungal growth assay, Control of Septoria tritici (PDB, 96-well, 24° C., photometric, 72 hrs)
[6] = test system: Rhizoctonia solani; assay: Fungal growth assay, Control of Rhizoctonia solani (PDB, 96-well, 24° C., photometric, 48 hrs)
[7] = test system: Gäumannomyces graminis; assay: Fungal growth assay, Control of Gaumannomyces graminis (PDB, 96-well, 24° C., photometric, 72 hrs)

## CC(C1CC1)C(O)(Cn1cncn1)c1ccc(Cl)cc1 (centres unmarked) [Cyproconazole, reference compound]
[1]; 0.2 ppm
  Observed control in % (% Cobs): 0%
[1]; 0.6 ppm
  Observed control in % (% Cobs): 0%
[1]; 1.8 ppm
  Observed control in % (% Cobs): 9%
[2]; 0.022 ppm
  Observed control in % (% Cobs): 4%
[2]; 0.2 ppm
  Observed control in % (% Cobs): 19%
[2]; 0.6 ppm
  Observed control in % (% Cobs): 28%
[3]; 0.002 ppm
  Observed control in % (% Cobs): 5%
[3]; 0.022 ppm
  Observed control in % (% Cobs): 1%
[3]; 0.2 ppm
  Observed control in % (% Cobs): 0%

## CC1COC(Cn2cncn2)(c2ccc(Oc3ccc(Cl)cc3)cc2Cl)O1 (centres unmarked) [Difenoconazole, reference compound]
[4]; 0.002 ppm
  Observed control in % (% Cobs): 2%
[1]; 0.007 ppm
  Observed control in % (% Cobs): 4%
[1]; 0.2 ppm
  Observed control in % (% Cobs): 1%
[1]; 0.6 ppm
  Observed control in % (% Cobs): 13%
[2]; 0.007 ppm
  Observed control in % (% Cobs): 0%
[2]; 0.022 ppm
  Observed control in % (% Cobs): 15%
[2]; 0.067 ppm
  Observed control in % (% Cobs): 23%
[2]; 0.2 ppm
  Observed control in % (% Cobs): 51%

## Cn1cc(C(=O)Nc2ccccc2[C@@H]2C[C@H]2C2CC2)c(C(F)F)n1 (racemic) [Racemic cpd Ia]
[4]; 0.0001 ppm
  Observed control in % (% Cobs): 5%
[4]; 0.0003 ppm
  Observed control in % (% Cobs): 0%
[4]; 0.002 ppm
  Observed control in % (% Cobs): 0%
[4]; 0.007 ppm
  Observed control in % (% Cobs): 15%
[1]; 0.0003 ppm
  Observed control in % (% Cobs): 0%
[1]; 0.0008 ppm
  Observed control in % (% Cobs): 0%
[1]; 0.002 ppm
  Observed control in % (% Cobs): 0%
[1]; 0.0025 ppm
  Observed control in % (% Cobs): 1% and 0%
[1]; 0.007 ppm
  Observed control in % (% Cobs): 2%
[1]; 0.0074 ppm
  Observed control in % (% Cobs): 0%
[1]; 0.067 ppm
  Observed control in % (% Cobs): 0% and 4% and 2%
[5]; 0.0001 ppm
  Observed control in % (% Cobs): 0%
[5]; 0.0003 ppm
  Observed control in % (% Cobs): 2% and 1%
[5]; 0.007 ppm
  Observed control in % (% Cobs): 0%
[5]; 0.0074 ppm
  Observed control in % (% Cobs): 0%
[5]; 0.022 ppm
  Observed control in % (% Cobs): 0%
[5]; 0.067 ppm
  Observed control in % (% Cobs): 4%
[6]; 0.0001 ppm
  Observed control in % (% Cobs): 3%
[6]; 0.0008 ppm
  Observed control in % (% Cobs): 8%
[6]; 0.0025 ppm
  Observed control in % (% Cobs): 4%
[6]; 0.007 ppm
  Observed control in % (% Cobs): 4%
[6]; 0.0074 ppm
  Observed control in % (% Cobs): 0%
[2]; 0.0003 ppm
  Observed control in % (% Cobs): 1%
[2]; 0.0008 ppm
  Observed control in % (% Cobs): 6%
[2]; 0.002 ppm
  Observed control in % (% Cobs): 0%
[2]; 0.0074 ppm
  Observed control in % (% Cobs): 4%
[2]; 0.022 ppm
  Observed control in % (% Cobs): 0%
[2]; 0.0667 ppm
  Observed control in % (% Cobs): 20%
[2]; 0.067 ppm
  Observed control in % (% Cobs): 1%
[2]; 1.8 ppm
  Observed control in % (% Cobs): 11% and 1% and 6%
[7]; 0.0003 ppm
  Observed control in % (% Cobs): 0%
[7]; 0.0008 ppm
  Observed control in % (% Cobs): 0%
[7]; 0.002 ppm
  Observed control in % (% Cobs): 2%
[7]; 0.007 ppm
  Observed control in % (% Cobs): 0%
[7]; 0.2 ppm
  Observed control in % (% Cobs): 0%
[3]; 0.0001 ppm
  Observed control in % (% Cobs): 0%
[3]; 0.0008 ppm
  Observed control in % (% Cobs): 0%
[3]; 0.007 ppm
  Observed control in % (% Cobs): 0%
[3]; 0.0074 ppm
  Observed control in % (% Cobs): 0%
[3]; 0.022 ppm
  Observed control in % (% Cobs): 0%
[3]; 0.0667 ppm
  Observed control in % (% Cobs): 7%
[3]; 0.067 ppm
  Observed control in % (% Cobs): 4% and 10%
[3]; 0.2 ppm
  Observed control in % (% Cobs): 7%
[3]; 0.6 ppm
  Observed control in % (% Cobs): 12%
[3]; 1.8 ppm
  Observed control in % (% Cobs): 18%

## c1ccc2[nH]c(-c3cscn3)nc2c1 [Thiabendazole, reference compound]
[5]; 0.0223 ppm
  Observed control in % (% Cobs): 0%
[5]; 0.067 ppm
  Observed control in % (% Cobs): 0%
[5]; 0.6 ppm
  Observed control in % (% Cobs): 3%
[5]; 1.8 ppm
  Observed control in % (% Cobs): 1%
[6]; 0.0074 ppm
  Observed control in % (% Cobs): 0%
[6]; 0.023 ppm
  Observed control in % (% Cobs): 7%
[6]; 0.2 ppm
  Observed control in % (% Cobs): 12%
[6]; 0.6 ppm
  Observed control in % (% Cobs): 13%
[2]; 0.0025 ppm
  Observed control in % (% Cobs): 0%
[2]; 0.0223 ppm
  Observed control in % (% Cobs): 0%
[3]; 0.0025 ppm
  Observed control in % (% Cobs): 1%
[3]; 0.0223 ppm
  Observed control in % (% Cobs): 0%

## CO/C=C(/C(=O)OC)c1ccccc1Oc1cc(Oc2ccccc2C#N)ncn1 [Azoxystrobin, reference compound]
[7]; 0.002 ppm
  Observed control in % (% Cobs): 11%

## N#Cc1c[nH]cc1-c1cccc2c1OC(F)(F)O2 [Fludioxonil, reference compound]
[4]; 0.002 ppm
  Observed control in % (% Cobs): 0%
[4]; 0.007 ppm
  Observed control in % (% Cobs): 0%
[4]; 0.022 ppm
  Observed control in % (% Cobs): 21%
[1]; 0.002 ppm
  Observed control in % (% Cobs): 0%
[1]; 0.007 ppm
  Observed control in % (% Cobs): 0%
[1]; 0.022 ppm
  Observed control in % (% Cobs): 0%
[1]; 0.067 ppm
  Observed control in % (% Cobs): 3%
[5]; 0.002 ppm
  Observed control in % (% Cobs): 0%
[5]; 0.067 ppm
  Observed control in % (% Cobs): 9%
[6]; 0.002 ppm
  Observed control in % (% Cobs): 0%
[6]; 0.007 ppm
  Observed control in % (% Cobs): 6%
[6]; 0.022 ppm
  Observed control in % (% Cobs): 0%
[6]; 0.067 ppm
  Observed control in % (% Cobs): 0%
[2]; 0.002 ppm
  Observed control in % (% Cobs): 7%
[3]; 0.007 ppm
  Observed control in % (% Cobs): 1%
[3]; 0.022 ppm
  Observed control in % (% Cobs): 6%
[3]; 0.067 ppm
  Observed control in % (% Cobs): 39%
